# Patent publication US20250257055A1, “TERTIARY AMIDE DERIVATIVES SUBSTITUTED WITH 4-MEMBERED RING STRUCTURE” (Sumitomo Pharma Co., Ltd., priority 2024, published 2025)
# pIC50: −log10 of the molar value. Where two headings read alike, the source gives them in different places.
# Legend:
# [1] = Pharmacokinetic study in mice; format: in vivo; conditions: for AUC / clearance / half-life / Vd / Cmax: female, BALB/c (BALB/cAnN CrlCrlj), mouse, plasma; for Vd: read-out: Vdss
# Description: The test compound was administered to 7-week-old female BALB/c (BALB/cAnN CrlCrlj) mice intravenously (dosage: 1 mg/kg) in a 50% PEG solution (0.01 mol/L HCl) or orally (dosage: 10 mg/kg) in a 0.5% methylcellulose aqueous solution, and blood was collected at the following times:
# Intravenous administration: 5 min, 15 min, 30 min, 1 hr, 2 hr, 4 hr, 6 hr, and 24 hr after administration
# Oral administration: 15 min, 30 min, 1 hr, 2 hr, 4 hr, 6 hr, and 24 hr after administration
# The collected blood was centrifuged at 3000 rpm×10 min using a refrigerated centrifuge set at 4° C., and the obtained plasma was measured by LC-MS. A calibration curve was prepared from the value (peak ratio) obtained by dividing the peak area of the test substance by the peak area of the internal standard substance in MS and the concentration of the plasma calibration curve sample. The concentration in the sample was calculated from the peak ratio and the calibration curve of each sample.
# recombinant p300 = recombinant p300 (Homo sapiens (Human), UniProt Q09472); assay: HAT activity inhibition experiment (SensoLyte HAT(p300) Assay Kit); format: biochemical; conditions: recombinant p300, histone H3 peptide, acetyl CoA
# Chain of recombinant p300 (Q09472 whole entry): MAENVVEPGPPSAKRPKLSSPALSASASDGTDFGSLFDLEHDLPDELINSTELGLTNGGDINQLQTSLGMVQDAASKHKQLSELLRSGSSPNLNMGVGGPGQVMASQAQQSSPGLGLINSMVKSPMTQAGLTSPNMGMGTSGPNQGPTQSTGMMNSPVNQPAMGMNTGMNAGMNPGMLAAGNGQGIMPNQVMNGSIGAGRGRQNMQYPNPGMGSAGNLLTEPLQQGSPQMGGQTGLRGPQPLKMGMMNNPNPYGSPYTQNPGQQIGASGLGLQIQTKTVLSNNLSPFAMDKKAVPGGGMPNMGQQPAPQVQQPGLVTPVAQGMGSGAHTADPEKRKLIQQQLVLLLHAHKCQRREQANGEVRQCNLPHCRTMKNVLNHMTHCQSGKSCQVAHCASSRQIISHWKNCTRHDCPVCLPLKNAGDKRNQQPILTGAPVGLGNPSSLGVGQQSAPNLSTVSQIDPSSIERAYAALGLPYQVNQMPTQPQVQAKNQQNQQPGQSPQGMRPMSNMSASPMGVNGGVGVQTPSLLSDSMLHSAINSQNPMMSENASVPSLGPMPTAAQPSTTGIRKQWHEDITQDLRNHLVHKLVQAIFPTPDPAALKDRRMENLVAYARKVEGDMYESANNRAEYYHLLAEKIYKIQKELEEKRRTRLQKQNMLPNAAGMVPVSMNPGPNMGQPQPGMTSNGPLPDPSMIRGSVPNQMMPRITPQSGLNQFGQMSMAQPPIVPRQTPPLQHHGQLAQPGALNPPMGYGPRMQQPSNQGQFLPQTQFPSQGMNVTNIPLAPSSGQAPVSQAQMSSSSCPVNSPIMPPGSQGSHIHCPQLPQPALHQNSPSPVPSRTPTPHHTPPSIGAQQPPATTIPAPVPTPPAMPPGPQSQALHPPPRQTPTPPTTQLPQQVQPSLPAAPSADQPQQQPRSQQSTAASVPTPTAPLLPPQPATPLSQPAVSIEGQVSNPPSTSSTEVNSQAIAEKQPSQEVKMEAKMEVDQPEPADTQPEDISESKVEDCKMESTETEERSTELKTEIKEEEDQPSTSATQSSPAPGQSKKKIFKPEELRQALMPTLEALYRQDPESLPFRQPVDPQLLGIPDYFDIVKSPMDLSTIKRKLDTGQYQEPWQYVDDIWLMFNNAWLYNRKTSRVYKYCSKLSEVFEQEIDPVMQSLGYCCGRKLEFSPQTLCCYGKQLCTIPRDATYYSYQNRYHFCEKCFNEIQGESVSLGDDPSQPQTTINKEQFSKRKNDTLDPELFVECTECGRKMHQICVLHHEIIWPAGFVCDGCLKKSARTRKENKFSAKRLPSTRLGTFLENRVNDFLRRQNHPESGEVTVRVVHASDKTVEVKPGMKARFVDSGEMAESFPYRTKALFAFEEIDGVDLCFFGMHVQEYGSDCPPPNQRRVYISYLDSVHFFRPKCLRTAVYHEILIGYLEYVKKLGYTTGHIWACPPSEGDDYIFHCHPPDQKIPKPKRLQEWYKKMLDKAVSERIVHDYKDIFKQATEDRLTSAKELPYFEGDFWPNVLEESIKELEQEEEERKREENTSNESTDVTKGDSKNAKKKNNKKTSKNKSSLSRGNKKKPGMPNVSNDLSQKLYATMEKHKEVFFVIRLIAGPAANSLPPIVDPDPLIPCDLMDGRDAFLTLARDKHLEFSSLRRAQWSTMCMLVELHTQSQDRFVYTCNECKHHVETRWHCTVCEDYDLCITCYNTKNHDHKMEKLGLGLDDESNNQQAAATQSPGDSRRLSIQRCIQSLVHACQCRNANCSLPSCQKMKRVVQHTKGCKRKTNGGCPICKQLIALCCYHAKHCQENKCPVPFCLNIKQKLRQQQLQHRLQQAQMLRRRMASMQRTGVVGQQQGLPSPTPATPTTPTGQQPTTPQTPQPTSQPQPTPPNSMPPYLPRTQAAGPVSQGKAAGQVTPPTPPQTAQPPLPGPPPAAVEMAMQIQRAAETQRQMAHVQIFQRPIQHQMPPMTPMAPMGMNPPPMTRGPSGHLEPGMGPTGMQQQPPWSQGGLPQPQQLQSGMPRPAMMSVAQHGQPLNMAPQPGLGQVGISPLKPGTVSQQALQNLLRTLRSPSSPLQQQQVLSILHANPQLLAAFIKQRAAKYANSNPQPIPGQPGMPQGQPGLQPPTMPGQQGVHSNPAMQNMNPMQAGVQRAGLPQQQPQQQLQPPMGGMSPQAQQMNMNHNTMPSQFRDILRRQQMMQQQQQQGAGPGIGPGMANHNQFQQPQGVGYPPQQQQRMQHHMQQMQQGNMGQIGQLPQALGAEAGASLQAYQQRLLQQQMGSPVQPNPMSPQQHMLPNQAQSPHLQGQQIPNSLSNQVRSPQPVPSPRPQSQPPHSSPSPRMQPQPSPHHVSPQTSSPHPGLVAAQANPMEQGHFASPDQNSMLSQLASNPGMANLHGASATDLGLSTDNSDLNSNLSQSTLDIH
# Description: The HAT activity inhibitory ability of HAT inhibitors was evaluated using SensoLyte HAT(p300) Assay Kit (ANASPEC, AS-72172). Specifically, 7.5 μL of the compound of Examples […] diluted with assay buffer was added to 7.5 μL of recombinant p300 solution diluted 10 times with assay buffer, and the mixture was incubated at room temperature for 10 minutes. 7.5 μL of acetyl CoA solution diluted 10 times with assay buffer and 15 μL of histone H3 peptide diluted 10 times with assay buffer were added thereto, and the mixture was incubated at 37° C. for 30 minutes. 37.5 μL of Stop Solution was added to stop the reaction. 75 μL of p300 Developer solution diluted 50 times with assay buffer was added, and the mixture was incubated at room temperature for 30 minutes under light-shielded conditions. The fluorescence at 513 nm when irradiated with 389 nm excitation light was measured using a multiplate reader.
# [2] = Membrane permeability test (PAMPA); format: in vitro ADME
# Description: The membrane permeability of the test compound was tested by parallel artificial membrane permeability assay (PAMPA) as follows. 200 μL of System solution (pION Inc.) containing the test compound and 4 μL of GIT Lipid-0 (pION Inc.) were added to the donor plate. 200 μL of Acceptor Sink Buffer (pION Inc.) was added to the acceptor plate. Both plates were overlapped and incubated at 37° C. for 4 hours, after which the UV of the solutions on the acceptor side and donor side was measured using a UV plate reader (190-500 nm). Compounds with poor UV absorption were measured using LC-MS. The permeability coefficient Pe (10^−6 cm/sec) of the drug was calculated using the following equation.
# G-401 cells = assay: Cell proliferation inhibition experiment using G-401 cells; format: cell-based; conditions: Homo sapiens, 72 h, cultured for 3 days, CellTiter-Glo
# Description: G-401 cells (derived from malignant rhabdoid tumor) were obtained from the American Type Culture Collection (ATCC). G-401 cells were cultured in McCoy's 5A medium containing 10% fetal bovine serum and 1% penicillin/streptomycin under conditions of 37° C. and 5% CO2.
# (§1) 500 cells per well were seeded in a 384-well plate. One day after seeding, Examples 1 to 35 were added so that the final concentration of DMSO was 0.1%, and the cells were cultured for 3 days. After the culture was completed, the cell viability was measured using CellTiter-Glo Luminescent Cell Viability Assay (Promega, G7570).
# Kuramochi cells = assay: Cell proliferation inhibition experiment using Kuramochi cells; format: cell-based; conditions: 144 h, cultured for 6 days, CellTiter-Glo
# Description: Kuramochi cells (derived from ovarian cancer) were obtained from JCRB (Japanese Collection of Research Bioresources) cell bank. Kuramochi cells were cultured in RPMI-1640 medium containing 10% fetal bovine serum and 1% penicillin/streptomycin under conditions of 37° C. and 5% CO2.
# as §1, with “Examples 3, 7, 9, 10, 11, 20, 23” for “Examples 1”, “to 25, and 30 to 34” for “to 35”, “for 6” for “for 3”
# Solubility test = format: physicochemical; conditions: aqueous buffer, thermodynamic from solid, 5° C., overnight
# Description: The solubility was measured for Examples 7, 10, 20, 23, 24, and 30 to 34, Comparative Example 1, and Comparative Example 2. The test compound was added to 10 mmol/L glycine buffer (pH 2.0) and 10 mmol/L citrate buffer (pH 3.0), and the mixture was stored in a thermostatic chamber at 5° C. After standing overnight, the mixture was filtered through a membrane filter, and the concentration of the filtrate was measured by HPLC.
# [3] = pH 5.0, 37° C., read-out: pH 5.0 Pe
# [4] = pH 7.4, 37° C., read-out: pH 7.4 Pe
# [5] = 10 mmol/L citrate buffer (pH 3.0), read-out: Solubility in pH 3.0 buffer
# [6] = 10 mmol/L glycine buffer (pH 2.0), read-out: Solubility in pH 2.0 buffer
Compound,"AUC ([1]; intravenous, 1 mg/kg)","clearance ([1]; intravenous, 1 mg/kg)","half-life ([1]; intravenous, 1 mg/kg)","Vd ([1]; intravenous, 1 mg/kg)","AUC ([1]; oral, 10 mg/kg)","Cmax ([1]; oral, 10 mg/kg)","BA ([1]; oral, 10 mg/kg)",pIC50 (recombinant p300),"Papp at 4 h [2, 3]","Papp at 4 h [2, 4]",pIC50 (G-401 cells),pIC50 (Kuramochi cells),solubility (Solubility test; [5]),solubility (Solubility test; [6])
"O=C1N[C@]2(CCc3cc(-c4cnn(C5CN(C6COC6)C5)c4)ccc32)C(=O)N1CC(=O)N(Cc1ccc(F)cc1)C1(C(F)(F)F)COC1 [Example 1, N-[(4-fluorophenyl)methyl]-2-[(1′S)-5′-{1-[1-(oxetan-3-yl)azetidin-3-yl]-1H-pyrazol-4-yl}-2,5-dioxo-2′,3′-dihydrospiro[imidazolidine-4,1′-inden]-1-yl]-N-[3-(trifluoromethyl)oxetan-3-yl]acetamide]",575 ng·h/mL,28.6 mL/min/kg,1.1 h,1.8 L/kg,4350 ng·h/mL,3770 ng/mL,75.7%,7.80,16.2 ×10⁻⁶ cm/s,20.6 ×10⁻⁶ cm/s,6.74,,,
"O=C1N[C@]2(C[C@@H](F)c3cc(-c4cnn(C5CN(C6COC6)C5)c4)ccc32)C(=O)N1CC(=O)N(Cc1ccc(F)cc1)C1(C(F)(F)F)CC(F)(F)C1 [Example 4, N-[3,3-difluoro-1-(trifluoromethyl)cyclobutyl]-2-[(1′S,3′R)-3′-fluoro-5′-{1-[1-(oxetan-3-yl)azetidin-3-yl]-1H-pyrazol-4-yl}-2,5-dioxo-2′,3′-dihydrospiro[imidazolidine-4,1′-inden]-1-yl]-N-[(4-fluorophenyl)methyl]acetamide]",2100 ng·h/mL,6.8 mL/min/kg,2.3 h,1.2 L/kg,28700 ng·h/mL,8300 ng/mL,136.3%,9.30,25.7 ×10⁻⁶ cm/s,31.2 ×10⁻⁶ cm/s,7.37,,,
"O=C1N[C@]2(CCc3cc(-c4cnn(C5CN(C6COC6)C5)c4)ccc32)C(=O)N1CC(=O)N(Cc1ccc(F)cc1)C1(C(F)(F)F)CC(F)(F)C1 [Example 5, N-[3,3-difluoro-1-(trifluoromethyl)cyclobutyl]-N-[(4-fluorophenyl)methyl]-2-[(1'S)-5′-{1-[1-(oxetan-3-yl)azetidin-3-yl]-1H-pyrazol-4-yl}-2,5-dioxo-2′,3′-dihydrospiro[imidazolidine-4,1′-inden]-1-yl]acetamide]",875 ng·h/mL,17.6 mL/min/kg,1.75 h,2.1 L/kg,7300 ng·h/mL,3500 ng/mL,83.4%,8.21,25.4 ×10⁻⁶ cm/s,28.4 ×10⁻⁶ cm/s,7.06,,,
"CN1CC(N(Cc2ccc(F)cc2)C(=O)CN2C(=O)N[C@]3(CCc4cc(-c5cnn(C)c5)ccc43)C2=O)(C(F)(F)F)C1 [Example 12, N-[(4-fluorophenyl)methyl]-2-[(1′S)-5′-(1-methyl-1H-pyrazol-4-yl)-2,5-dioxo-2′,3′-dihydrospiro[imidazolidine-4,1′-inden]-1-yl]-N-[1-methyl-3-(trifluoromethyl)azetidin-3-yl]acetamide]",465 ng·h/mL,35.7 mL/min/kg,0.97 h,1.6 L/kg,1400 ng·h/mL,1290 ng/mL,30.0%,8.20,24 ×10⁻⁶ cm/s,28.9 ×10⁻⁶ cm/s,7.09,,,
"CN1CC(N(Cc2ccc(F)cc2)C(=O)CN2C(=O)N[C@]3(C[C@@H](F)c4cc(-c5cnn(C)c5)c(F)cc43)C2=O)(C(F)(F)F)C1 [Example 29, 2-[(1′S,3′R)-3′,6′-difluoro-5′-(1-methyl-1H-pyrazol-4-yl)-2,5-dioxo-2′,3′-dihydrospiro[imidazolidine-4,1′-inden]-1-yl]-N-[(4-fluorophenyl)methyl]-N-[1-methyl-3-(trifluoromethyl)azetidin-3-yl]acetamide]",,,,,,,,8.55,23.9 ×10⁻⁶ cm/s,28.3 ×10⁻⁶ cm/s,7.77,,,
"CCn1cc(-c2ccc3c(c2)[C@H](F)C[C@]32NC(=O)N(CC(=O)N(Cc3ccc(F)cc3)C3(C(F)(F)F)CN(C)C3)C2=O)cn1 [Example 30, 2-[(1′S,3′R)-5′-(1-ethyl-1H-pyrazol-4-yl)-3′-fluoro-2,5-dioxo-2′,3′-dihydrospiro[imidazolidine-4,1′-inden]-1-yl]-N-[(4-fluorophenyl)methyl]-N-[1-methyl-3-(trifluoromethyl)azetidin-3-yl]acetamide]",,,,,,,,8.82,30.6 ×10⁻⁶ cm/s,35 ×10⁻⁶ cm/s,8.70,8.00,1700 µg/mL,8800 µg/mL
"CC(C)n1cc(-c2ccc3c(c2)[C@H](F)C[C@]32NC(=O)N(CC(=O)N(Cc3ccc(F)cc3)C3(C(F)(F)F)CN(C)C3)C2=O)cn1 [Example 31, 2-{(1′S,3′R)-3′-fluoro-2,5-dioxo-5′-[1-(propan-2-yl)-1H-pyrazol-4-yl]-2′,3′-dihydrospiro[imidazolidine-4,1′-inden]-1-yl}-N-[(4-fluorophenyl)methyl]-N-[1-methyl-3-(trifluoromethyl)azetidin-3-yl]acetamide]",,,,,,,,9.00,31.3 ×10⁻⁶ cm/s,34.9 ×10⁻⁶ cm/s,9.00,8.10,1400 µg/mL,7100 µg/mL
"CCn1cc(-c2ccc3c(c2)[C@H](F)C[C@]32NC(=O)N(CC(=O)N(Cc3ccc(F)cn3)C3(C(F)(F)F)CN(C)C3)C2=O)cn1 [Example 32, 2-[(1′S,3′R)-5′-(1-ethyl-1H-pyrazol-4-yl)-3′-fluoro-2,5-dioxo-2′,3′-dihydrospiro[imidazolidine-4,1′-inden]-1-yl]-N-[(5-fluoropyridin-2-yl)methyl]-N-[1-methyl-3-(trifluoromethyl)azetidin-3-yl]acetamide]",,,,,,,,9.40,15.4 ×10⁻⁶ cm/s,26.6 ×10⁻⁶ cm/s,8.30,7.28,> 10000 µg/mL,> 10000 µg/mL
"CN1CC(N(Cc2ccc(C(F)(F)F)cc2)C(=O)CN2C(=O)N[C@]3(C[C@@H](F)c4cc(-c5cnn(C)c5)ccc43)C2=O)(C(F)(F)F)C1 [Example 35, 2-[(1′S,3′R)-3′-fluoro-5′-(1-methyl-1H-pyrazol-4-yl)-2,5-dioxo-2′,3′-dihydrospiro[imidazolidine-4,1′-inden]-1-yl]-N-[1-methyl-3-(trifluoromethyl)azetidin-3-yl]-N-{[4-(trifluoromethyl)phenyl]methyl}acetamide]",,,,,,,,8.28,31.2 ×10⁻⁶ cm/s,33.7 ×10⁻⁶ cm/s,7.14,,,
